Series [1] relates to transgenic soybean plants with DMO-encoding polynucleotide (Events 1-4). Nature of the series: Greenhouse, post-V3 applications of different auxin-like herbicides, visual % injury. It counts as in vivo. The settings on record: for tolerance of DMO polynucleotide containing soybean: post-V3 application. As for the experimental part: (§1) This was carried out by applying various concentrations of commercially available formulations of other auxin-like herbicides such as 2,4-D (Helena, Collierville, Tenn.), MCPA (Agriliance, St. Paul, Minn.), triclopyr (GARLON 3A; Dow Elanco, Indianapolis, Ind.), clopyralid (STINGER; Dow Elanco, Indianapolis, Ind.), picloram (TORDON 22K; Dow Elanco, Indianapolis, Ind.), or Banvel or CLARITY (BASF, Raleigh, N.C.) to DMO containing plant tissues or plants.
(§2) Transgenic soybean plants were obtained by Agrobacterium-mediated transformation of soybean explants with a DMO-encoding polynucleotide as described above for the events designated Events 1-4. A non-transgenic line was used as a control.
(§3) Applications were made when plants had reached V-3 stage.
(§4) Data were collected using a palm top computer and analyzed using standard statistical methods. The results shown in Table 10 clearly indicate tolerance of transgenic soybean to other auxin-like herbicides such as 2,4-D and MCPA relative to the non-transgenic line.

For series [2], the system named is non-transgenic soybean plants. Described as above. It counts as in vivo. As for the experimental part:
as §1, §2, §3, §4

Series [3] has as its system MARESTAIL (CA) Resistant. Nature of the series: Control of marestail by dicamba or glyphosate, treated at rosette leaf stage. It counts as in vivo, Conyza canadensis. Conditions: glyphosate formulation 2100 g/ha. An excerpt:
(§5) Marestail is one of the major weeds in a crop field. Marestail is effectively controlled by glyphosate, but the development of methods for controlling this common weed with other herbicides is important to minimize opportunities for herbicide tolerance to develop.

The test system of series [4] is MARESTAIL (KY) Resistant. The description is as above. It counts as in vivo, Conyza canadensis. Conditions: glyphosate formulation 2100 g/ha.
Text: as §5

For series [5], the system named is Marestail Resistant (KY). Nature of the series: Dicamba, glyphosate and their combination on marestail. It is filed as in vivo, Conyza canadensis. Conditions: glyphosate formulation 200 g/ha.

This is an account of results in patent US8629328B2 (Monsanto Technology LLC, priority 2006, dated 2014).

In the case of `O=C(O)COc1ccc(Cl)cc1Cl` [2,4-D, (2,4-dichlorophenoxy)acetic acid], the “% injury at 21 DAT” value was determined as 58.3% in series [1] (Event 1, 280 g ae/ha post-V3); 75.0% in series [1] (Event 1, 561 g ae/ha post-V3); 100.0% in series [1] (Event 1, 1120 g ae/ha post-V3); 64.2% in series [1] (Event 2, 280 g ae/ha post-V3); 94.7% in series [1] (Event 2, 561 g ae/ha post-V3); 100.0% in series [1] (Event 2, 1120 g ae/ha post-V3). Moreover, the “% injury at 21 DAT” value was 40.0% in series [1] (Event 3, 280 g ae/ha post-V3); 85.0% in series [1] (Event 3, 561 g ae/ha post-V3); 100.0% in series [1] (Event 3, 1120 g ae/ha post-V3); 45.8% in series [1] (Event 4, 280 g ae/ha post-V3); 84.2% in series [1] (Event 4, 561 g ae/ha post-V3); 100.0% in series [1] (Event 4, 1120 g ae/ha post-V3). The “% injury at 21 DAT” value in series [2] (280 g ae/ha post-V3) is recorded as 86.8%; in series [2] (561 g ae/ha post-V3), 100.0%; in series [2] (1120 g ae/ha post-V3), 100.0%. Moreover, in series [1], the “tolerance of DMO polynucleotide containing soybean” value is “tolerant to low levels”.
In the case of `O=C(O)c1nc(Cl)ccc1Cl` [Clopyralid, 3,6-dichloro-2-pyridinecarboxylic acid], the “% injury at 14 DAT” value is 99.2% in series [1] (Event 1, 280 g ae/ha post-V3); 100.0% in series [1] (Event 1, 561 g ae/ha post-V3); 100.0% in series [1] (Event 1, 1120 g ae/ha post-V3); 98.2% in series [1] (Event 2, 280 g ae/ha post-V3); 99.7% in series [1] (Event 2, 561 g ae/ha post-V3); 100.0% in series [1] (Event 2, 1120 g ae/ha post-V3). For the same molecule, the “% injury at 14 DAT” value in series [1] (Event 3, 280 g ae/ha post-V3) was found to be 99.3%; in series [1] (Event 3, 561 g ae/ha post-V3), 100.0%; in series [1] (Event 3, 1120 g ae/ha post-V3), 100.0%; in series [1] (Event 4, 280 g ae/ha post-V3), 99.7%; in series [1] (Event 4, 561 g ae/ha post-V3) it was 100.0%; in series [1] (Event 4, 1120 g ae/ha post-V3) it was 100.0%. Also, the “% injury at 14 DAT” value in series [2] (280 g ae/ha post-V3) is on record as 99.3%; in series [2] (561 g ae/ha post-V3), 100.0%; in series [2] (1120 g ae/ha post-V3) it was 100.0%.
With `Cc1cc(Cl)ccc1OCC(=O)O` [MCPA, (4-chloro-2-methylphenoxy)acetic acid], the “% injury at 21 DAT” value in series [1] (Event 1, 280 g ae/ha post-V3) turned out to be 72.5%; in series [1] (Event 1, 561 g ae/ha post-V3) it was 99.3%; in series [1] (Event 1, 1120 g ae/ha post-V3) it was 100.0%; in series [1] (Event 2, 280 g ae/ha post-V3), 55.0%; in series [1] (Event 2, 561 g ae/ha post-V3), 95.0%; in series [1] (Event 2, 1120 g ae/ha post-V3), 99.7%. Moreover, the “% injury at 21 DAT” value in series [1] (Event 3, 280 g ae/ha post-V3) is 55.0%; in series [1] (Event 3, 561 g ae/ha post-V3) it was 95.8%; in series [1] (Event 3, 1120 g ae/ha post-V3), 100.0%; in series [1] (Event 4, 280 g ae/ha post-V3), 88.3%; in series [1] (Event 4, 561 g ae/ha post-V3), 98.8%; in series [1] (Event 4, 1120 g ae/ha post-V3), 100.0%. Further, the entries for the “% injury at 21 DAT” value in series [2] (280 g ae/ha post-V3), in series [2] (561 g ae/ha post-V3) and in series [2] (1120 g ae/ha post-V3) were 93.0%, 98.3% and 100.0%, respectively. Moreover, the “tolerance of DMO polynucleotide containing soybean” value in series [1] is “tolerant to low levels”.
Regarding `Nc1c(Cl)c(Cl)nc(C(=O)O)c1Cl` [Picloram, 4-amino-3,5,6-trichloro-2-pyridinecarboxylic acid], the “% injury at 14 DAT” value amounted to 99.7% in series [1] (Event 1, 280 g ae/ha post-V3); 100.0% in series [1] (Event 1, 561 g ae/ha post-V3); 100.0% in series [1] (Event 1, 1120 g ae/ha post-V3); 99.3% in series [1] (Event 2, 280 g ae/ha post-V3); 100.0% in series [1] (Event 2, 561 g ae/ha post-V3); 100.0% in series [1] (Event 2, 1120 g ae/ha post-V3). Besides, the “% injury at 14 DAT” value in series [1] (Event 3, 280 g ae/ha post-V3) worked out at 99.3%; in series [1] (Event 3, 561 g ae/ha post-V3), 99.7%; in series [1] (Event 3, 1120 g ae/ha post-V3), 100.0%; in series [1] (Event 4, 280 g ae/ha post-V3), 99.3%; in series [1] (Event 4, 561 g ae/ha post-V3), 100.0%; in series [1] (Event 4, 1120 g ae/ha post-V3) it was 100.0%. Further, the “% injury at 14 DAT” value in series [2] (280 g ae/ha post-V3) is given as 99.3%; in series [2] (561 g ae/ha post-V3) it was 100.0%; in series [2] (1120 g ae/ha post-V3), 100.0%.
`O=C(O)CNCP(=O)(O)O` [glyphosate, N-phosphonomethylglycine]: the “% Injury (21 DAT)” value is recorded as “about 77%” in series [3] and “about 91%” in series [4]. For the same molecule, in series [5], the “% Injury (18 DAT)” value is given as 6%.
